What all share (assay): relative viability (nuclei count vs DMSO), 5 days (fraction); higher = more cells survive
Compound in experiment [1]: C1=CC2=C(C=C(C(=C2N=C1)O)N=NC3=CC4=C(C=C3)C=C(C=C4)S(=O)(=O)O)S(=O)(=O)O + CS(=O)(=O)CCNCc1ccc(-c2ccc3ncnc(Nc4ccc(OCc5cccc(F)c5)c(Cl)c4)c3c2)o1 [Lapatinib] (partner 2 µM)
The essentials:
(§1)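 Dosing by pin tool came one day after lung cancer cell lines were seeded in 1536-well plates, using either one drug or a fixed anchor-drug dose plus five library-drug doses (not always all listed) in √10 steps. After 5 days, nuclei were counted on 4× images. Relative viability is treated-well nuclei count divided by vehicle-well nuclei count, and values are medians of duplicate plates.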

Compound in the experiment “AT-7519 + Palbociclib”: O=C(NC1CCNCC1)c1n[nH]cc1NC(=O)c1c(Cl)cccc1Cl [AT-7519] + CC(=O)c1c(C)c2cnc(Nc3ccc(N4CCNCC4)cn3)nc2n(C2CCCC2)c1=O [Palbociclib] (partner 0.5 µM)
The essentials:
as §1

Compound in the experiment “AT-7519 + Luminespib”: O=C(NC1CCNCC1)c1n[nH]cc1NC(=O)c1c(Cl)cccc1Cl [AT-7519] + CCNC(=O)c1noc(-c2cc(C(C)C)c(O)cc2O)c1-c1ccc(CN2CCOCC2)cc1 [Luminespib] (partner 0.01 µM)
The essentials: as §1

Compound in the experiment “AT-7519 + Phenformin”: O=C(NC1CCNCC1)c1n[nH]cc1NC(=O)c1c(Cl)cccc1Cl [AT-7519] + N=C(N)NC(=N)NCCc1ccccc1 [Phenformin] (partner 250 µM)
Summed up:
as §1

For NCI-H1395, the relative viability in experiment [1] (first compound 0.08 µM) came to 1.14; in experiment [1] (first compound 0.253 µM) it was 1.18; in experiment [1] (first compound 0.8 µM), 1.19; in experiment [1] (first compound 2.53 µM), 1.01; in experiment [1] (first compound 8 µM) it was 0.966; in the experiment with AT-7519 + Palbociclib (first compound 0.01 µM), 0.561. Also, the relative viability with AT-7519 + Palbociclib (first compound 0.03162 µM) came out at 0.699; in the experiment with AT-7519 + Palbociclib (first compound 0.3162 µM), 0.573; with AT-7519 + Palbociclib (first compound 1 µM), 0.504; with AT-7519 + Luminespib (first compound 0.01 µM), 0.606; with AT-7519 + Luminespib (first compound 0.03162 µM), 0.648; in the experiment with AT-7519 + Luminespib (first compound 0.3162 µM) it was 0.665. In addition, the relative viability was 0.508 in the experiment with AT-7519 + Luminespib (first compound 1 µM); 0.463 in the experiment with AT-7519 + Phenformin (first compound 0.01 µM); 0.518 with AT-7519 + Phenformin (first compound 0.03162 µM); 0.443 in the experiment with AT-7519 + Phenformin (first compound 0.3162 µM); 0.407 with AT-7519 + Phenformin (first compound 1 µM).
For the cell line NCI-H358, the relative viability amounted to 0.436 in experiment [1] (first compound 0.08 µM); 0.393 in experiment [1] (first compound 0.253 µM); 0.469 in experiment [1] (first compound 0.8 µM); 0.486 in experiment [1] (first compound 2.53 µM); 0.483 in experiment [1] (first compound 8 µM); 0.138 with AT-7519 + Palbociclib (first compound 0.01 µM). Moreover, the relative viability was determined as 0.139 with AT-7519 + Palbociclib (first compound 0.03162 µM); 0.108 with AT-7519 + Palbociclib (first compound 0.3162 µM); 0.119 with AT-7519 + Palbociclib (first compound 1 µM); 0.326 in the experiment with AT-7519 + Luminespib (first compound 0.01 µM); 0.267 in the experiment with AT-7519 + Luminespib (first compound 0.03162 µM); 0.24 with AT-7519 + Luminespib (first compound 0.3162 µM). Also, the relative viability worked out at 0.224 with AT-7519 + Luminespib (first compound 1 µM); 0.342 with AT-7519 + Phenformin (first compound 0.01 µM); 0.313 with AT-7519 + Phenformin (first compound 0.03162 µM); 0.205 with AT-7519 + Phenformin (first compound 0.3162 µM); 0.087 with AT-7519 + Phenformin (first compound 1 µM).
Consider NCI-H838, for which the relative viability in experiment [1] (first compound 0.08 µM) worked out at 1.29; in experiment [1] (first compound 0.253 µM), 0.926; in experiment [1] (first compound 0.8 µM), 0.934; in experiment [1] (first compound 2.53 µM), 0.926; in experiment [1] (first compound 8 µM), 1.06; with AT-7519 + Palbociclib (first compound 0.01 µM), 0.233. Also, the relative viability turned out to be 0.21 with AT-7519 + Palbociclib (first compound 0.03162 µM); 0.194 in the experiment with AT-7519 + Palbociclib (first compound 0.3162 µM); 0.1 in the experiment with AT-7519 + Palbociclib (first compound 1 µM); 0.239 in the experiment with AT-7519 + Luminespib (first compound 0.01 µM); 0.292 in the experiment with AT-7519 + Luminespib (first compound 0.03162 µM); 0.276 with AT-7519 + Luminespib (first compound 0.3162 µM). The relative viability worked out at 0.13 with AT-7519 + Luminespib (first compound 1 µM); 0.534 with AT-7519 + Phenformin (first compound 0.01 µM); 0.552 with AT-7519 + Phenformin (first compound 0.03162 µM); 0.247 with AT-7519 + Phenformin (first compound 0.3162 µM); 0.0953 in the experiment with AT-7519 + Phenformin (first compound 1 µM).
Turning to CAL-12T, the relative viability in experiment [1] (first compound 0.08 µM) turned out to be 0.593; in experiment [1] (first compound 0.253 µM) it was 0.58; in experiment [1] (first compound 0.8 µM) it was 0.629; in experiment [1] (first compound 2.53 µM), 0.63; in experiment [1] (first compound 8 µM), 0.663; with AT-7519 + Palbociclib (first compound 0.01 µM), 0.396. The relative viability was determined as 0.471 with AT-7519 + Palbociclib (first compound 0.03162 µM); 0.172 with AT-7519 + Palbociclib (first compound 0.3162 µM); 0.151 with AT-7519 + Palbociclib (first compound 1 µM); 0.438 with AT-7519 + Luminespib (first compound 0.01 µM); 0.509 in the experiment with AT-7519 + Luminespib (first compound 0.03162 µM); 0.15 in the experiment with AT-7519 + Luminespib (first compound 0.3162 µM). Further, the relative viability with AT-7519 + Luminespib (first compound 1 µM) was 0.0831; with AT-7519 + Phenformin (first compound 0.01 µM), 0.531; with AT-7519 + Phenformin (first compound 0.03162 µM), 0.579; with AT-7519 + Phenformin (first compound 0.3162 µM), 0.272; with AT-7519 + Phenformin (first compound 1 µM), 0.188.

These data come from the supplement of paper PMC10307832.
